Results reported in patent US20250145606A1 (Arcus Biosciences, Inc., priority 2023, published 2025).

Legend:
[1] = biological target: c-Kit (Homo sapiens (Human), UniProt P10721); experiment: Inhibition of c-Kit kinase activity (HTRF KinEASE-TK); assay type: biochemical; details: biochemical, HTRF KinEASE-TK
How it was run: (§1)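 Recombinant kinases (2 nM CSF1R and c-Kit, 10 nM PDGFRα/β, 2× working) preincubated 1 h with compound in 50 mM HEPES pH 7.4, 5 mM MgCl2 (c-Kit) or 10 mM (others), 2 mM MnCl2; 2× ATP: c-Kit 16 μM, PDGFRα 1 μM, PDGFRβ 40 μM, CSF1R 20 μM. 120 min reaction at rt; TR-FRET 665/620 nm; IC50 by 4-parameter fit.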

[2] = test system: Phospho-KIT (Y703) in M07e cells; experiment: Phospho-KIT (Y703) cellular assay in M07e cells; assay type: cell-based; details: M-07e; Phospho-KIT (Y703), M07e cells; read-out: M07e Cell IC50
Protocol: Phospho-KIT (Y703) Cellular Assay in M07e Cells
The day prior to assay, M07e cells (DSMZ, catalog #ACC 104) were serum starved. Cells were centrifuged and cell pellet resuspended in OptiMEM (Gibco, catalog #31985062) to a density of 1×10^6-2.5×10^6 cells per mL. Cells were then incubated overnight at 5% CO2 and 37° C. in an appropriately sized flask. On the day of the experiment, an 11 point, half log titration of test compound was pre-dispensed into 96-well round bottom polypropylene plates (Corning, catalog #3365). The serum starved M07e cells were centrifuged and resuspended to a cell density of 1×10^6 cells per mL with DPBS (Gibco, catalog #14190-144). Live/Dead Green Fixable viability dye (Invitrogen, catalog #L34970) was added as 1 μL/1 mL of cell suspension. Cells were then incubated in the dark at 4° C. for 30 min. Cells were washed by centrifugation and resuspension with DPBS+0.5% BSA (Gemini Bio Products, catalog #700110/100, 30% BSA solution). Cells were resuspended, separated into two equal volumes and again centrifuged. Cell pellets were resuspended with OptiMEM™ to a cell density of 1×10^6 cells per mL. Cells were then added to the appropriate compound plate at 100,000 cells per well in 100 μL and mixed. Plates were incubated at 5% CO2 and 37° C. for 50 min. Stem Cell Factor, SCF (R&D Systems, #255-SC/CF) was diluted in OptiMEM to 1 μg/mL and added to all wells as 10 μL for a final concentration of 90.9 ng/mL. Plates were incubated at 5% CO2 and 37° C. for 10 min. Incubation was stopped by addition of 110 μL 4% paraformaldehyde solution in PBS (Life Technologies, catalog #J19943.K2). Plates were incubated at rt for at least 15 min. Plates were then centrifuged and supernatant removed by flicking. Cells were washed once by resuspension in 200 μL DPBS+0.5% BSA, centrifuged, and supernatant removed by flicking. Cells were resuspended in 100 μL 1X Permeabilization buffer (Invitrogen, catalog #88882400) and plates incubated at rt for 30 min. Plates were centrifuged, supernatant removed by flicking, and cells resuspended in 50 μL primary antibody, anti-phospho-c-KIT (Tyr703) (Cell Signaling, catalog #3073), diluted to 1 μg/mL with permeabilization buffer. Plates were incubated at rt for 1 h. Plates were centrifuged, supernatant removed, and cells resuspended with 200 μL DPBS+0.5% BSA. Plates were again centrifuged, supernatant removed by flicking, and cells resuspended in 100 μL secondary antibody, goat anti-rabbit AlexaFluor647 (AF647) (Invitrogen, catalog #A21244) diluted to 1 μg/mL with DPBS+0.5% BSA. Plates were incubated at rt for 30 min. followed by centrifugation, supernatant removal, and cell resuspension with 200 μL DPBS+0.5% BSA. Cells were washed again by centrifugation, supernatant removal, and cell resuspension with 200 μL DPBS+0.5% BSA. Samples were then read by flow cytometry. The Forward: Side scatter plot was gated and that population was gated for live cells based on the Live/Dead Green staining. The geometric mean of AF647 of the live cell population was recorded. Percentage maximum activity in each test well was calculated based on DMSO (100% activity) and positive control treated cell wells (0% activity). The potencies (IC50 values) of test compounds were determined using a standard 4-parameter non-linear regression fit.

[3] = biological target: CSF1R (Homo sapiens (Human), UniProt P07333); experiment: Inhibition of CSF1R kinase activity (HTRF KinEASE-TK); details: biochemical, HTRF KinEASE-TK
Sequence of CSF1R (P07333 20-972): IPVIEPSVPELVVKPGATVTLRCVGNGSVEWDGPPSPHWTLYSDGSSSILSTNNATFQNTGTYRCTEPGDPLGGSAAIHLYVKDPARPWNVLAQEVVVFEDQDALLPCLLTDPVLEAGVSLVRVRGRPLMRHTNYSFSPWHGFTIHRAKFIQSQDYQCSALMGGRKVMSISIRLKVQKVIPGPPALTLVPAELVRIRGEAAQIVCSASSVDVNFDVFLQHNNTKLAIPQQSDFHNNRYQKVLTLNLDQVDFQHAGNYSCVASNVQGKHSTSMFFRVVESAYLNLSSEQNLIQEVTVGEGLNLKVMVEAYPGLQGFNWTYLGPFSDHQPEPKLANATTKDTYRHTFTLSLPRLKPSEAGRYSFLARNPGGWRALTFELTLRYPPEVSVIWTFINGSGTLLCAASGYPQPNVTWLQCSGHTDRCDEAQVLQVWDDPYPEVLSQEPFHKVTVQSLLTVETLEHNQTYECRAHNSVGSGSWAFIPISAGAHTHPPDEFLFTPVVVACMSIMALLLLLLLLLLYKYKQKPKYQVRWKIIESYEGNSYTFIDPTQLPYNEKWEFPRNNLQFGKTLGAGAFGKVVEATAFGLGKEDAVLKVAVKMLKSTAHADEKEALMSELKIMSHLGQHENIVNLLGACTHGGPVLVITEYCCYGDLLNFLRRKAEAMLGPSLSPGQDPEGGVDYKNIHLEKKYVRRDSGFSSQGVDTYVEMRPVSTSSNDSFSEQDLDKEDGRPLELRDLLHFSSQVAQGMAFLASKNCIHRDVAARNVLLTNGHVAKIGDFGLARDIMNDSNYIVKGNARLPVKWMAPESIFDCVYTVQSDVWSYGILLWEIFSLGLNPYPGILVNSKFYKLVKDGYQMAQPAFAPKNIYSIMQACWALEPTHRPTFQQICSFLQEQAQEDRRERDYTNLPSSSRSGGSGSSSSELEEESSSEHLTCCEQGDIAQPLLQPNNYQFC
How it was run: as §1

[4] = biological target: PDGFRβ (Homo sapiens (Human), UniProt P09619); experiment: Inhibition of PDGFRβ kinase activity (HTRF KinEASE-TK); details: biochemical, HTRF KinEASE-TK
Sequence of PDGFRβ (P09619 33-1106): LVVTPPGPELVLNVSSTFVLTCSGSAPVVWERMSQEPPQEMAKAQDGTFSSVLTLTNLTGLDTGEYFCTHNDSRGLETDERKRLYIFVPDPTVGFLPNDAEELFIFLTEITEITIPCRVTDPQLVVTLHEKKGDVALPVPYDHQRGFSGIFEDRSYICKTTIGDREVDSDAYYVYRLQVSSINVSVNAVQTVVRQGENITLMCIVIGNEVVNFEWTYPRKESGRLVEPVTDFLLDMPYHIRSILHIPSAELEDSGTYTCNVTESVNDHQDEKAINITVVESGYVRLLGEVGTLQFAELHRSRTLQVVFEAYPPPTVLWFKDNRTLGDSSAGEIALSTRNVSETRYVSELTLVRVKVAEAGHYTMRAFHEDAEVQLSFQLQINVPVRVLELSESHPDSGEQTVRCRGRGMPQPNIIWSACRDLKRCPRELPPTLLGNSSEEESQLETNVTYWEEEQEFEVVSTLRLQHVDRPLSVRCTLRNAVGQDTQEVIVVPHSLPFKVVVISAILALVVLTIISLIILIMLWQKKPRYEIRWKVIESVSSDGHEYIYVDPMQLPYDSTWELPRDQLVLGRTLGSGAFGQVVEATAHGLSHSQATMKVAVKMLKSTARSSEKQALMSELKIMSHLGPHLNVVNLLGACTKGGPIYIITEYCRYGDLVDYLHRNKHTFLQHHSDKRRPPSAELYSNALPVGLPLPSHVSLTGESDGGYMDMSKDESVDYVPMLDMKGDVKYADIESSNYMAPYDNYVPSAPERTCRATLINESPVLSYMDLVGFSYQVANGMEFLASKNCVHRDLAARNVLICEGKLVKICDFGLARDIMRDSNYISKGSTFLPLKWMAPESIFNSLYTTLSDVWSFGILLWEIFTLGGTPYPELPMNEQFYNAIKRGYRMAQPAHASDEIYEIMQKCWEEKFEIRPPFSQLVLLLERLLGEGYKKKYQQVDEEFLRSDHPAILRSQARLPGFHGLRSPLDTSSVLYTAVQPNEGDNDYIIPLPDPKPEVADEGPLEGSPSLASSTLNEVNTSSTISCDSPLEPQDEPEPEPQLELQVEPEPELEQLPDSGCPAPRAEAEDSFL
How it was run: as §1

[5] = biological target: PDGFRα (Homo sapiens (Human), UniProt P16234); experiment: Inhibition of PDGFRα kinase activity (HTRF KinEASE-TK); details: biochemical, HTRF KinEASE-TK
Sequence of PDGFRα (P16234 24-1089): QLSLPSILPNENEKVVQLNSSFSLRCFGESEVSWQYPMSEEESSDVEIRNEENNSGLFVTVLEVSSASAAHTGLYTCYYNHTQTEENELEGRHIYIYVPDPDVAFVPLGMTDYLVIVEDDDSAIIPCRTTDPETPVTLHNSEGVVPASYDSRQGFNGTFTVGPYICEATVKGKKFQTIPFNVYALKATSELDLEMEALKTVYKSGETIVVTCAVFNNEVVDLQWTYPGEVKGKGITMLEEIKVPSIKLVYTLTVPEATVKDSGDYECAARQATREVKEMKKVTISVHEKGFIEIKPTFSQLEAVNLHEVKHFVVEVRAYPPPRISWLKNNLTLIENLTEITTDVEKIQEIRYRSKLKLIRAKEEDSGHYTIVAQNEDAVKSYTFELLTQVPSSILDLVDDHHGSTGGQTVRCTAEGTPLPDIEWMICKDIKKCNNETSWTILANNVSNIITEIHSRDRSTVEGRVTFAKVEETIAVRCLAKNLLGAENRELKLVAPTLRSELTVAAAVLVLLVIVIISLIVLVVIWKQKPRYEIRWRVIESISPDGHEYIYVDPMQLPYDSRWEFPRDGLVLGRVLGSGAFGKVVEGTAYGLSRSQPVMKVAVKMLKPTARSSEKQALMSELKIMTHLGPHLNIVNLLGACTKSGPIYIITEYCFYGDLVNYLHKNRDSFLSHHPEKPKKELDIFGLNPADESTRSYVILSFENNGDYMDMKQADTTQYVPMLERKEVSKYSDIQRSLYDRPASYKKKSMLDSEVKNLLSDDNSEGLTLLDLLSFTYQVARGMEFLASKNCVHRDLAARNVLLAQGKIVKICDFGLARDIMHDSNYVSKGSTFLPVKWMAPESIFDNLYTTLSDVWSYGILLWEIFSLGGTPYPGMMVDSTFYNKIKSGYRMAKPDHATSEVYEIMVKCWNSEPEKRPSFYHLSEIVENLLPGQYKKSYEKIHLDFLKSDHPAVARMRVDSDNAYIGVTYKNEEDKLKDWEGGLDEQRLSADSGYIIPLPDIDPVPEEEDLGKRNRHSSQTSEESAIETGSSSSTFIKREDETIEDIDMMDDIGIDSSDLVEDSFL
How it was run: as §1

Sequence of c-Kit (P10721 26-976): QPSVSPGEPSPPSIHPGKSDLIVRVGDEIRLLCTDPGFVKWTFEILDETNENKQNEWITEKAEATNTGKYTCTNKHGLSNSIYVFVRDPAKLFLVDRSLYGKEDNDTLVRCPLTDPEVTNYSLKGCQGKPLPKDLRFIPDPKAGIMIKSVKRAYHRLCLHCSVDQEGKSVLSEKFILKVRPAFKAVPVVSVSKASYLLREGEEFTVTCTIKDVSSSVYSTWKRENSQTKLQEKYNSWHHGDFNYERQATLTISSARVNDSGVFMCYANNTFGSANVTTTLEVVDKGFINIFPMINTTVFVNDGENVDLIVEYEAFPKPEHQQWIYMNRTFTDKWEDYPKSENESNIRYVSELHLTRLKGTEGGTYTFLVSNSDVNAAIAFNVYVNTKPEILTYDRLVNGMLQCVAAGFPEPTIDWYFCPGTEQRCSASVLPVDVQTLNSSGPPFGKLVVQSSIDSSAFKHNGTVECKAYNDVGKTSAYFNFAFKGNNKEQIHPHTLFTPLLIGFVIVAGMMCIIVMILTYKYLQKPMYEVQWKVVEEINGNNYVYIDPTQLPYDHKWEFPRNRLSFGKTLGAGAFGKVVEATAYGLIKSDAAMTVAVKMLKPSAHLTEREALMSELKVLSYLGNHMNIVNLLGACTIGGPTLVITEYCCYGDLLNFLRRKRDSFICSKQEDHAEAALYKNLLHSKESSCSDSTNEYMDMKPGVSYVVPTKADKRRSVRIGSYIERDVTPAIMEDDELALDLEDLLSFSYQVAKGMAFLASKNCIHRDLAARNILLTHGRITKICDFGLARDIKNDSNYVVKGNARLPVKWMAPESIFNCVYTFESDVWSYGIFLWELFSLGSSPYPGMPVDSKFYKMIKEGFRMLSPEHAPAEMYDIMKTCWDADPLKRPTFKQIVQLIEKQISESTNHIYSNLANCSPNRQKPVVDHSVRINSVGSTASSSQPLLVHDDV

SMILES | IC50 [1] [nM] | IC50 [2] [nM] | IC50 [3] [nM] | IC50 [4] [nM] | IC50 [5] [nM]
Cc1ncc(C(=O)Nc2cc(C(=O)NCc3cccnc3)c(F)cc2C)s1 [Example 12, N-(4-Fluoro-2-methyl-5-((pyridin-3-ylmethyl)carbamoyl)phenyl)-2-methylthiazole-5-carboxamide] | 100 to 1000 | 100 to 1000 | – | – | –
Cc1ncc(C(=O)Nc2cc(C(=O)Nc3cnc(OC(F)F)cn3)c(F)cc2C)s1 [Example 15, N-[5-[[5-(Difluoromethoxy)pyrazin-2-yl]carbamoyl]-4-fluoro-2-methylphenyl]-2-methyl-1,3-thiazole-5-carboxamide] | < 100 | < 100 | > 1000 | – | –
Cc1ncc(C(=O)Nc2cc(C(=O)Nc3ccc(C#N)cn3)c(F)cc2C)s1 [Example 19, N-[5-[(5-Cyanopyridin-2-yl)carbamoyl]-4-fluoro-2-methylphenyl]-2-methyl-1,3-thiazole-5-carboxamide] | 100 to 1000 | 100 to 1000 | > 1000 | – | –
Cc1ncc(C(=O)Nc2cc(C(=O)Nc3ccnc(OC(F)F)c3)c(F)cc2C)s1 [Example 21, N-[5-[[2-(Difluoromethoxy)pyridin-4-yl]carbamoyl]-4-fluoro-2-methylphenyl]-2-methyl-1,3-thiazole-5-carboxamide] | < 100 | < 100 | > 1000 | – | –
Cc1ncc(C(=O)Nc2cc(C(=O)Nc3ccnc(C(F)F)c3)c(F)cc2C)s1 [Example 22, N-[5-[[2-(Difluoromethyl)pyridin-4-yl]carbamoyl]-4-fluoro-2-methylphenyl]-2-methyl-1,3-thiazole-5-carboxamide] | < 100 | 100 to 1000 | > 1000 | – | –
Cc1ncc(C(=O)Nc2cc(C(=O)Nc3cnc(C(C)C)cn3)c(F)cc2C)s1 [Example 28, N-[4-fluoro-2-methyl-5-[(5-propan-2-ylpyrazin-2-yl)carbamoyl]phenyl]-2-methyl-1,3-thiazole-5-carboxamide] | < 100 | < 100 | > 1000 | – | –
Cc1ncc(C(=O)Nc2cc(C(=O)N[C@H]3C[C@@H]3c3ccccc3)c(F)cc2C)s1 [Example 30, N-[4-Fluoro-2-methyl-5-[[(1S,2R)-2-phenylcyclopropyl]carbamoyl]phenyl]-2-methyl-1,3-thiazole-5-carboxamide] | 100 to 1000 | < 100 | > 1000 | – | –
Cc1ncc(C(=O)Nc2cc(C(=O)Nc3cncc(C(F)(F)F)n3)c(F)cc2C)s1 [Example 33, N-[4-fluoro-2-methyl-5-[[6-(trifluoromethyl)pyrazin-2-yl]carbamoyl]phenyl]-2-methyl-1,3-thiazole-5-carboxamide] | < 100 | 100 to 1000 | > 1000 | – | –
Cc1cc(F)c(C(=O)Nc2ccc(OC3CC3)cn2)cc1NC(=O)c1cnc(NCC(F)F)s1 [Example 235, N-[5-[(5-cyclopropyloxypyridin-2-yl)carbamoyl]-4-fluoro-2-methylphenyl]-2-(2,2-difluoroethylamino)-1,3-thiazole-5-carboxamide] | < 100 | – | > 1000 | 100 to 1000 | > 1000

Continued, values first:

IC50 [1] [nM] | IC50 [2] [nM] | IC50 [3] [nM] | IC50 [4] [nM] | IC50 [5] [nM] | SMILES
< 100 | 100 to 1000 | > 1000 | – | – | Cc1ncc(C(=O)Nc2cc(C(=O)Nc3ccnc(C#N)c3)c(F)cc2C)s1 [Example 18, N-[5-[(2-Cyanopyridin-4-yl)carbamoyl]-4-fluoro-2-methylphenyl]-2-methyl-1,3-thiazole-5-carboxamide]
< 100 | 100 to 1000 | > 1000 | – | – | COc1cnc(NC(=O)c2cc(NC(=O)c3cnc(C)s3)c(C)cc2F)cn1 [Example 23, N-[4-Fluoro-5-[(5-methoxypyrazin-2-yl)carbamoyl]-2-methylphenyl]-2-methyl-1,3-thiazole-5-carboxamide]
< 100 | < 100 | > 1000 | – | – | CCc1cnc(NC(=O)c2cc(NC(=O)c3cnc(C)s3)c(C)cc2F)cn1 [Example 27, N-[5-[(5-ethylpyrazin-2-yl)carbamoyl]-4-fluoro-2-methylphenyl]-2-methyl-1,3-thiazole-5-carboxamide]
< 100 | < 100 | > 1000 | – | – | Cc1ncc(C(=O)Nc2cc(C(=O)Nc3cnc(C(F)(F)F)cn3)c(F)cc2C)s1 [Example 29, N-[4-fluoro-2-methyl-5-[[5-(trifluoromethyl)pyrazin-2-yl]carbamoyl]phenyl]-2-methyl-1,3-thiazole-5-carboxamide]
< 100 | < 100 | – | – | – | Cc1ncc(C(=O)Nc2cc(C(=O)Nc3ccc(C(F)F)nc3)c(F)cc2C)s1 [Example 54, N-[5-[[6-(difluoromethyl)pyridin-3-yl]carbamoyl]-4-fluoro-2-methylphenyl]-2-methyl-1,3-thiazole-5-carboxamide]
100 to 1000 | – | > 1000 | > 1000 | > 1000 | CCc1cc(F)c(C(=O)Nc2ccc(OC3CC3)cn2)cc1NC(=O)c1cnc(N)s1 [Example 237, 2-Amino-N-[5-[(5-cyclopropyloxypyridin-2-yl)carbamoyl]-2-ethyl-4-fluorophenyl]-1,3-thiazole-5-carboxamide]
< 100 | – | < 100 | < 100 | < 100 | Cc1c(F)cc(C(=O)Nc2ccc(OC3CC3)cn2)cc1NC(=O)c1cnc(N)s1 [Example 243, 2-Amino-N-[5-[(5-cyclopropyloxypyridin-2-yl)carbamoyl]-3-fluoro-2-methylphenyl]-1,3-thiazole-5-carboxamide]
< 100 | – | 100 to 1000 | 100 to 1000 | > 1000 | Cc1cc(F)c(C(=O)Nc2ccc(CN3CCN(C)CC3)cn2)cc1NC(=O)c1cnc(N)s1 [Example 247, 2-Amino-N-[4-fluoro-2-methyl-5-[[5-[(4-methylpiperazin-1-yl)methyl]pyridin-2-yl]carbamoyl]phenyl]-1,3-thiazole-5-carboxamide]
< 100 | – | > 1000 | > 1000 | > 1000 | Cc1cc(F)c(C(=O)Nc2ccc(CN3CCOCC3)cn2)cc1NC(=O)c1cnc(N)s1 [Example 248, 2-Amino-N-[4-fluoro-2-methyl-5-[[5-(morpholin-4-ylmethyl)pyridin-2-yl]carbamoyl]phenyl]-1,3-thiazole-5-carboxamide]
< 100 | – | > 1000 | > 1000 | > 1000 | COCCOc1ccc(NC(=O)c2cc(NC(=O)c3cnc(N)s3)c(C)cc2F)nc1 [Example 252, 2-Amino-N-[4-fluoro-5-[[5-(2-methoxyethoxy)pyridin-2-yl]carbamoyl]-2-methylphenyl]-1,3-thiazole-5-carboxamide]
< 100 | – | > 1000 | 100 to 1000 | 100 to 1000 | Cc1cc(F)c(C(=O)NCc2ccn(C(C)C)n2)cc1NC(=O)c1cnc(N)s1 [Example 253, 2-Amino-N-[4-fluoro-2-methyl-5-[(1-propan-2-ylpyrazol-3-yl)methylcarbamoyl]phenyl]-1,3-thiazole-5-carboxamide]
